Laboratory results from patent US20170022258A1, “PEPTIDES FOR USE IN THE TREATMENT OF IL-1 RELATED DISEASES AND CONDITIONS” (C4M PHARMACEUTICALS PTY LTD., priority 2011, published 2017).
Read-outs that look alike come from different tables or passages of the source. Non-standard residues stand in square brackets, D forms with d. Residues, ends and D or L forms follow the SMILES beside them. No end group written: not given here.

T1: IL-1 receptor (Homo sapiens, UniProt P14778)
T1 construct: confluent human monocytes, which express the IL-1 receptor; endogenous in cells; host or cells: human monocytes
T1 sequence (P14778 18-569): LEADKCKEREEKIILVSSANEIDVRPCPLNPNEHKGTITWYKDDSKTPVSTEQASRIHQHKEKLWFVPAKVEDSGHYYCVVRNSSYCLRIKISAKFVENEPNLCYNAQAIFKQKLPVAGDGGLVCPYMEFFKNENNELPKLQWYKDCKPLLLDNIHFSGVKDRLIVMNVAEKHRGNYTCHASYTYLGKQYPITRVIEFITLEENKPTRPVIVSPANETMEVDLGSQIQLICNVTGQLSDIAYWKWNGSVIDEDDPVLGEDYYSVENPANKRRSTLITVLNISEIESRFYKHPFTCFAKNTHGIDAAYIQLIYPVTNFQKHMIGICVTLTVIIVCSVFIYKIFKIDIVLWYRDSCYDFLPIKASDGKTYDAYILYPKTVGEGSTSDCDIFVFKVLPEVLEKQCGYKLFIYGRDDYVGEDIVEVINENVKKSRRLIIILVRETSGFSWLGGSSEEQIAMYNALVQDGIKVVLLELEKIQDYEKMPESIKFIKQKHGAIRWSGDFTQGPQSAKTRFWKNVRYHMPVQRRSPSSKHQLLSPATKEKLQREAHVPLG

T2: IL-1 receptor (IL-1R) expressed on human monocytes (human, UniProt P14778 18-569)
T2 sequence (looked up): T1 sequence (P14778 18-569)


Columns and labels:
[1] = Solubility of peptide under different solvent conditions; assay type: physicochemical; conditions: 30 min room temperature
Protocol: 100 mg of each peptide was added to 100 ml total of water plus the solvents, and the solution was gently agitated for 30 min at room temperature.

[2] = Human plasma stability trials; assay type: in vitro ADME; conditions: 37° C., 12 hours, read-out: ½ Life human plasma
Protocol: 1 mg of each peptide was added to the plasma and the solution was gently agitated for 2 minutes at room temperature before standing at 37° C. for a period of 12 hours.

[3] = tested on: thoroughbred having equine laminitis; assay: Effect of peptides on equine laminitis (Obel Lameness Grades); assay type: in vivo, horse; conditions: for Change in Obel Score: 1 mg intravenously, before vs 24 hours after injection, most negative = greatest improvement; for Duration (days) of effect on laminitis: single 1 mg intravenous, averaged, report by veterinarians
Protocol: Each of the peptides having the sequences 13, 14, 19 and 4 were also tested to determine their effect on equine laminitis. Each peptide was administered intravenously to a thoroughbred having equine laminitis. The peptides were prepared as compositions containing 1 mg of peptide dissolved in 5 ml of a solution comprising water, bicarbonate and either benzyl alcohol or methanol. The effect of the peptides on equine laminitis was judged by the Obel Lameness Grades, which is a system of rating degrees of lameness resulting from laminitis. […] Obel Grade III horses do resist having a foreleg lifted, and are reluctant to walk. Obel Grade IV horses will walk only if forced. The Obel Score for each of the horses was measured before administration of the peptide and 24 hours after injection of the peptide. […] The effect in reducing laminitis which was caused by one single injection of the peptides on laminitis was short-lived. Therefore, the duration of the effect of the peptides in reducing laminitis was further assessed by attending veterinarians.

[4] = Stability of peptide once dissolved in solution (1 month); assay type: physicochemical; conditions: 1 mg in 5 ml water, bicarbonate and benzyl alcohol (19, 4) or methanol (13, 14); for Stability of peptide once dissolved in solution (at 1 month), Room Temp (month): room temperature
Protocol: Each of the peptides having the sequences 13, 14, 19 and 4 were tested to determine their stability in a solution containing (preferred composition above) water, bicarbonate and either benzyl alcohol (peptide 19 and 4) or methanol (peptide 13 and 14). Each of the peptides were held for a period of 1 month at either 4° C. or at room temperature.
1 mg of each peptide was added to the water, bicarbonate and either benzyl alcohol or methanol solution and the solution was gently agitated for 1 hour at room temperature before standing at either 4° C. or at room temperature for a period of 1 month.

[5] = molecular target: T1, IL-1 receptor; assay: Radioligand competition binding assay (125I-labeled IL-1α) on human monocytes; conditions: IL-1 binding antagonism on human monocytes; average of three measurements and standard error
Protocol: (§1) Radioligand competition binding assays were performed in 96-well plates containing confluent human monocytes, which express the IL-1 receptor. Wells were washed three times with binding buffer, and binding buffer was placed in each well. Peptides were resuspended in dimethyl sulfoxide at 20 mM and diluted in binding buffer to the desired starting concentration. Using a Beckman robotic system, five 3-fold dilutions were prepared, and peptide solution was transferred to duplicate receptor-containing wells. To each well, radioactive ^125Iodine-labeled IL-Ia (Amersham) was added to a final concentration of 40 pM, and the plates were placed on a shaking platform at 4° C. for 2 hr. Plates were washed with PBS using a plate washer, and bound ^125I-labeled IL-la was eluted for 10 min with 0.1 M NaOH and counted in a gamma counter. IC50 values were determined by fitting the data to a two-parameter logistic equation. In all cases, nonspecific binding was determined by the addition of 3 μM of recombinant IL-Ia.

[6] = tested on: IL-1 stimulation of IL-8 in human skin fibroblasts; assay: Inhibition of IL-1 induced IL-8 in human fibroblasts; assay type: cell-based; conditions: inhibition of IL-1 stimulation of IL-8 in human skin fibroblasts; average of three measurements and standard error; read-out: Binding (IC50 nM)
Protocol: Inhibition of IL-1 induced IL-8 in human fibroblasts was determined using normal human dermal fibroblast cells cultured in DMEM with 10% fetal calf serum in 48-well plates.
Twenty-four hours before initiation of the experiment, the medium was changed to DMEM with 0.2% fetal calf serum. Each peptide was added to confluent cells, which were then pulsed for 30 min with rIL-I,B (which was obtained from R & D Systems) at 50 pg/ml. The cells were washed four times with PBS, and fresh DMEM/0.2% fetal calf serum was added to each well. After 5 hr of incubation, the culture media were collected and analyzed by ELISA for IL-8 (which was obtained from R & D Systems). Maximal activation, with IL-1 only, was 2530±13 pg/ml of IL-8. Nonspecific activation, determined in the presence of 1000-fold excess IL-1Ra, was 30±9 pg/ml of IL-8 (n=3).

[7] = molecular target: T2, IL-1 receptor (IL-1R) expressed on …; assay: cell-based or functional assay
[8] = molecular target: T2, IL-1 receptor (IL-1R) expressed on …; assay: radioligand competition, 40 pM 125I-IL-1α on confluent human monocytes
Protocol: as §1, with “¹²⁵Iodine-labeled” for “^125Iodine-labeled”, “¹²⁵I-labeled” for “^125I-labeled”, “IC₅₀” for “IC50”

[9] = molecular target: IL-1 receptor (IL-1R) expressed on human monocytes (human) (UniProt P14778); assay: as above
[10] = molecular target: IL-1 receptor (IL-1R) expressed on human monocytes (human) (UniProt P14778); assay: cell-based or functional assay
[11] = benzyl alcohol (0.1-1%) in water, benzyl alcohol (0.1-1%), 100 mg peptide in 100 ml, read-out: Solubility: Benzyl Alcohol
[12] = hydrochloric acid (0.1-1%) in water, hydrochloric acid (0.1-1%), 100 mg peptide in 100 ml water plus solvent, read-out: Solubility: Acid
[13] = methanol (1-10%) in water, methanol (1-10%), 100 mg peptide in 100 ml, read-out: Solubility: Methanol
[14] = sodium bicarbonate (0.1-1%) in water, sodium bicarbonate (0.1-1%), 100 mg peptide in 100 ml, read-out: Solubility: Base

Row | solubility at 30 min [1, 11] [µg/mL] | solubility at 30 min [1, 12] [µg/mL] | solubility at 30 min [1, 14] [µg/mL] | half-life [2] [min] | Stability of peptide once dissolved in solution (at 1 month), 4° C. (month) [4] [%] | Stability of peptide once dissolved in solution (at 1 month), Room Temp (month) [4] [%] | IC50, in vitro inhibition of IL-1 stimulation of IL-8 in human skin fibroblasts (rIL-1β 50 pg/ml, IL-8 ELISA) [7] [nM] | IC50 [8] [nM] | Molecule | Change in Obel Score [3] | Duration (days) of effect on laminitis [3] [days] | IC50 [6] [nM] | other results
1 | < 1000 | < 1000 | < 1000 | 46 | 21 | 1 | – | – | CC(=O)N[C@@H](CCC(=O)O)C(=O)N[C@H](C(=O)N1CCC[C@H]1C(=O)N[C@@H](Cc1ccccc1)C(=O)N[C@H](C(=O)N[C@@H](Cc1c[nH]c2ccccc12)C(=O)N[C@@H](CCC(=O)O)C(=O)N[C@@H](CCC(=O)O)C(=O)N[C@@H](CO)C(=O)N[C@@H](CC(N)=O)C(=O)N[C@@H](C)C(=O)N[C@@H](Cc1ccc(O)cc1)C(=O)N[C@@H](Cc1ccc(O)cc1)C(=O)N[C@@H](Cc1c[nH]c2ccccc12)C(=O)N[C@@H](CCC(N)=O)C(=O)N1CCC[C@H]1C(=O)N[C@@H](Cc1ccc(O)cc1)C(=O)N[C@@H](C)C(=O)N[C@@H](CC(C)C)C(=O)N1CCC[C@H]1C(=O)N[C@@H](CC(C)C)C(=O)O)[C@@H](C)O)[C@@H](C)O [SEQ ID NO. 13, reference compound] (Ac-ETPFTWEESNAYYWQPYALPL-OH; C-terminus assumed) | −0.5 | 1 | 11 | solubility at 30 min [1, 13]: > 1000 µg/mL; IC50 [5]: 11 nM
2 | < 1000 | < 1000 | < 1000 | 333 | 78 | 18 | – | – | CC(=O)N[C@H](CC(C)C)C(=O)N1CCC[C@@H]1C(=O)N[C@H](CC(C)C)C(=O)N[C@H](C)C(=O)N[C@H](Cc1ccc(O)cc1)C(=O)N1CCC[C@@H]1C(=O)N[C@H](CCC(N)=O)C(=O)N[C@H](Cc1c[nH]c2ccccc12)C(=O)N[C@H](Cc1ccc(O)cc1)C(=O)N[C@H](Cc1ccc(O)cc1)C(=O)N[C@H](C)C(=O)N[C@H](CC(N)=O)C(=O)N[C@H](CO)C(=O)N[C@H](CCC(=O)O)C(=O)N[C@H](CCC(=O)O)C(=O)N[C@H](Cc1c[nH]c2ccccc12)C(=O)N[C@@H](C(=O)N[C@H](Cc1ccccc1)C(=O)N1CCC[C@@H]1C(=O)N[C@@H](C(=O)N[C@H](CCC(=O)O)C(=O)O)[C@H](C)O)[C@H](C)O [SEQ ID NO. 14] (Ac-[dL][dP][dL][dA][dY][dP][dQ][dW][dY][dY][dA][dN][dS][dE][dE][dW][dT][dF][dP][dT][dE]-OH; C-terminus assumed) | −1.1 | 2 | 11 | solubility at 30 min [1, 13]: > 1000 µg/mL; IC50 [5]: 9.2 nM
3 | > 1000 | < 1000 | < 1000 | 49 | 95 | 48 | – | – | CC(=O)N[C@@H](Cc1ccccc1)C(=O)N[C@@H](CCC(=O)O)C(=O)N[C@@H](Cc1c[nH]c2ccccc12)C(=O)N[C@H](C(=O)N1CCC[C@H]1C(=O)NCC(=O)N[C@@H](Cc1ccc(O)cc1)C(=O)N[C@@H](Cc1c[nH]c2ccccc12)C(=O)N[C@@H](CCC(N)=O)C(=O)N1CCC[C@H]1C(=O)N[C@@H](Cc1ccc(O)cc1)C(=O)N[C@@H](C)C(=O)N[C@@H](CC(C)C)C(=O)N1CCC[C@H]1C(=O)N[C@@H](CC(C)C)C(=O)O)[C@@H](C)O [SEQ ID NO. 19, Ac FEWTPGYWQPYALPL, reference compound] (Ac-FEWTPGYWQPYALPL-OH; C-terminus assumed) | −2.1 | 2 | 10 | –
4 | – | – | – | – | – | – | 10 | 7.1 | Ac-FEWTPGYWQPYALPL (also called peptide 19) [peptide of SEQ ID NO: 19 (Ac FEWTPGYWQPYALPL)] | – | – | – | –
5 | – | – | – | – | – | – | 76 | 7.6 | Ac-TANVSSFEWTPGYWQPYALPL (also called peptide 17) [peptide of SEQ ID NO: 17 (Ac-TANVSSFEWTPGYWQPYALPL)] | – | – | – | –
6 | – | – | – | – | – | – | 16 | 20 | Ac-FTWEESNAYYWQPYALPL (also called peptide 15) [peptide of SEQ ID NO: 15 (Ac-FTWEESNAYYWQPYALPL)] | – | – | – | –
7 | – | – | – | – | – | – | 19 | 8.1 | Ac-DGYDRWRQSGERYWQPYALPL (also called peptide 20) [peptide of SEQ ID NO: 20 (Ac-DGYDRWRQSGERYWQPYALPL)] | – | – | – | –
8 | – | – | – | – | – | – | – | – | Ac-[dL][dP][dL][dA][dY][dP][dQ][dW][dY][dR][dE]G[dS][dQ][dR][dW][dR][dD][dY]G[dD] (not fully specified (residues 12, 20); printed as Ac-LPLAYPQWYREGSQRWRDYGD) [peptide of SEQ ID NO: 21 (Ac-…, D-amino acids)] | – | – | – | IC50 [9]: 240 nM; IC50, in vitro inhibition of IL-1 stimulation of IL-8 in human skin fibroblasts (rIL-1β 50 pg/ml, IL-8 ELISA) [10]: 730 nM
